# Assays:
# [1] = biological target: T1, HIV-1 RT (Human immunodeficiency virus type 1 group M subtype B, UniProt P03367); experiment: Reverse Transcriptase (RT) Assay: inhibition of RNA-dependent DNA polymerase activity; assay type: biochemical; set-up: RT Inhibition % @ 10 »g/ml: tested at 10 µg/ml; details: for inhibition at 1 µM: compound at 1 »M (footnote *), read-out: RT Inhibition % (* % inh. @ 1 »M); for RT Inhibition % @ 10 »g/ml: poly r(C)/oligo d(G) template, ³H-dGTP, 60 minutes at room temperature
# T1 construct: Reverse transcriptase enzyme from the LAV strain of Human Immunodeficiency Virus (HIV-1) (1) was isolated from the bacterial strain JM109; made in house; host or cells: E. coli JM109, clone pBRTprtl+ in vector pIBI21 (lac promoter, IPTG induction)
# Description: Utilizing the Reverse Transcriptase (RT) Assay described below, compounds can be tested for their ability to inhibit the RNA-dependent DNA polymerase activity of HIV-1 RT. Certain specific compounds described in the Examples which appear below, were so tested.
# Among the enzymes for which Human Immunodeficiency Virus (HIV-1) encodes is a reverse transcriptase (1), so-named because it transcribes a DNA copy from an RNA template. This activity can be quantitatively measured in a cell-free enzyme assay, which has been previously described (2), and is based upon the observation that reverse transcriptase is able to use a synthetic template [poly r(C) primed with oligo d(G)] to transcribe a radio-labelled, acid-precipitable DNA strand utilizing ³H-dGTP as a substrate.
# Reverse transcriptase enzyme from the LAV strain of Human Immunodeficiency Virus (HIV-1) (1) was isolated from the bacterial strain JM109 (3) expressing the DNA clone pBRTprtl+ (2) which is under the control of the lac promotor in the expression vector pIBI21 (4). An overnight culture grown in 2XYT medium (37°C, 225 rpm) (5) supplemented with 100 »g/ml ampicillin for positive selection is inoculated at a 1:40 dilution into M9 medium supplemented with 10»g/ml thiamine, 0.5% casamino acids, and 50 »g/ml ampicillin (5). The culture is incubated (37°C, 225 rpm) until it reaches an OD540 of 0.3-0.4. At that time the repressor inhibitor IPTG (isopropyl β-D-thiogalactopyranoside) is added to 0.5mM, and the mixture is incubated for 2 additional hours. Bacteria are pelleted, resuspended in a 50mM Tris, 0.6mM EDTA, 0.375M NaCl buffer and digested by the addition of lysozyme (1mg/ml) for 30 minutes on ice. The cells are lysed by the addition of 0.2% NP-40 and brought to 1M NaCl.
# After removal of the insoluble debris by centrifugation, the protein is precipitated by the addition of 3 volumes of saturated aqueous ammonium sulfate. The enzyme is pelleted, resuspended in RT buffer (50mM Tris pH 7.5, 1mM EDTA, 5mM DTT, 0.1% NP-40, 0.1M NaCl, and 50% glycerol), and stored at -70°C for further use.
# The 2X concentrated stock reaction mixture is aliquoted and stored at -20°C. The mixture is stable and thawed for use in each assay. This enzyme assay has been adapted to a 96 well microtiter plate system, and has been previously described (6). Tris buffer (50 mM, pH 7.4), vehicle (solvent diluted to match the compound dilution), or compounds in vehicle are dispensed into 96-well microtiter plates (10»l/well; 3 wells/ compound). The HIV-1 RT enzyme is thawed, diluted in 50mM Tris pH 7.4 so that fifteen »l of diluted enzyme contain 0.001 Unit (one unit is that amount of enzyme to transform 1 micromole of substrate per minute at 25°C), and fifteen »l are dispensed per well. Twenty »l of 0.12-0.5M EDTA are added to the first three wells of the microtiter plate. EDTA chelates the Mg⁺⁺ present and prevents reverse transcription. This group serves as background polymerization which is subtracted from all other groups. Twenty-five ul of the 2X reaction mixture are added to all wells and the assay is allowed to incubate at room temperature for 60 minutes. The assay is terminated by precipitating the DNA in each well with 50»l of 10% trichloracetic acid (TCA) (10% w/v) in sodium pyrophosphate (1% w/v). The microtiter plate is incubated for 15 minutes at 4°C and the precipitate is fixed onto #30 glass fiber paper (Schleicher & Schuell) using a Skatron semi-automatic harvester. The filters are then washed with additional TCA (5%) containing sodium pyrophosphate (1%), rinsed with aqueous ethanol (70%), dried, and transferred to scintillation vials (6). Each vial receives 2 mls of scintillation cocktail and is counted in a Beckman beta counter.
# The calculation for percent inhibition is as follows: [formula]
# [2] = MTT Assay for Cellular Cytotoxicity; assay type: cell-based; details: human; H9 cells, five days incubation, MTT read at 570nm; read-out: Cytotoxicity Assay (EC₅₀)
# Procedure: In order to roughly assess the cytotoxicity of the compounds provided by the invention, several such compounds were tested in the MTT Cellular Cytotoxicity Assay described below. Compounds having a relatively high EC₅₀ are preferred.
# The MTT [3-(4,5-dimethylthiazol-2-yl)-2,5 diphenyl tetrazolium bromide) assay is based on cleavage of tetrazolium bromide by metabolically active cells, resulting in a highly quantitative blue color. This assay has been previously described (1) but has been optimized for the purposes of the testing reported herein.
# The H9 cell line (2), an established human lymphoma suspension cell line grown in RPMI 1640 supplemented with 10% fetal bovine serum, is used as the target cell line in the assay. Cells (100»l) are plated in microtest plate wells at a concentration of 10⁵ cells per ml in the presence of varying concentrations of inhibitor. The cells are incubated at 37°C in a humidified CO₂ incubator. Five days later, 20»l of MTT (5mg/ml in RPMI 1640, sonicated, 0.2 micron filtered, and stored at 4°C) is added to each well. After 4 hours additional incubation at 37°C, 60»l of Triton-X is added to each well and thoroughly mixed to aid the solubilization of the crystals. Absolute ethanol (5»l) is added to each well and the resulting mixture is incubated for 30 minutes at 60°C and immediately read on a plate reader (Dynatech) at a wavelength of 570nm. […]
Structure (SMILES),inhibition at 1 µM [1] [%],RT Inhibition % @ 10 »g/ml [1] [%],also measured
"CCN1C(=O)c2cccnc2Oc2cc(C)ccc21 [Example 12, 6-Ethyl-9-methylpyrido[2,3-b][1,5]benzoxazepin-5(6H)-one]",67,,
"CCCN1C(=O)c2cc(N)cnc2Oc2cc(C)cc(C)c21 [Example 6, 3-Amino-7,9-dimethyl-6-(n-propyl)pyrido[2,3-b][1,5]benzoxazepin-5(6H)-one]",82,,
"CCN1C(=O)c2cc(N)cnc2Oc2cc(C)cc(C)c21 [Example 5, 3-Amino-7,9-dimethyl-6-ethylpyrido[2,3-b][1,5]benzoxazepin-5(6H)-one]",93,,
"Cc1ccc2c(c1)Oc1ncccc1C(=O)N2C [Example 11, 6,9-Dimethylpyrido[2,3-b][1,5)benzoxazepin-5(6H)-one]",43,,
"C=CCN1C(=O)c2cccnc2Oc2ccccc21 [Example 9, 6-Allylpyrido[2,3-b][1,5]benzoxazepin-5(6H)-one]",,89,
"Cc1ccc2c(c1)Oc1ncc(N)cc1C(=O)N2C [Example 3, 3-Amino-6,9-dimethylpyrido[2,3-b][1,5]benzoxazepin-5(6H)-one]",57,,CC50 at 120 h [2]: 315 µM
"CCCN1C(=O)c2cccnc2Oc2ccccc21 [Example 1, 6-(n-Propyl)pyrido[2,3-b][1,5]benzoxazepin-5(6H)-one]",,80,
"Cc1ccc2c(c1)Oc1ncc(O)cc1C(=O)N2C [Example 13, 3-Hydroxy-6,9-dimethylpyrido[2,3-b][1,5]benzoxazepin-5(6H)-one]",,,"inhibition at 2.5 µM ([1]; compound at 2.5 »M (footnote †), read-out: RT Inhibition % († % inh. @ 2.5 »M)): 41%"
"CN1C(=O)c2cccnc2Oc2ccccc21 [Example 7, 6-Methylpyrido[2,3-b][1,5]benzoxazepin-5(6H)-one]",,71,
"CCC(=O)N1C(=O)c2cccnc2Oc2ccccc21 [Example 10, 6-Propionylpyrido[2,3-b][1,5]benzoxazepin-5(6H)-one]",,28,
"CCN1C(=O)c2cccnc2Oc2ccccc21 [Example 8, 6-Ethylpyrido[2,3-b][1,5]benzoxazepin-5(6H)-one]",,77,
"CCN1C(=O)c2cccnc2Oc2cccc(N)c21 [Example 14, 7-Amino-6-ethylpyrido[2,3-b][1,5]benzoxazepin-5(6H)-one]",33,,
"CN1C(=O)c2cccnc2Sc2ccccc21 [Example 15, 6-Methylpyrido[2,3-b][1,5]benzothiazepin-5(6H)-one]",,85,
"CCN1C(=O)c2cccnc2Sc2ccccc21 [Example 2, 6-Ethylpyrido[2,3-b][1,5]benzothiazepin-5(6H)-one]",,89,
"Cc1cc(C)c2c(c1)Oc1ncc(N)cc1C(=O)N2C [Example 4, 3-Amino-6,7,9-trimethylpyrido[2,3-b][1,5]benzoxazepin-5(6H)-one]",92,,
